Inconclusive results are not listed. Active and inactive are the calls of the source. No rule for the calls is given here.
system: S. typhimurium/E. coli reverse mutation, colony counts; assay: Bacterial reverse mutation test (aka Ames test) summary data
Outline: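 S. typhimurium his⁻ strains (TA97–TA1538) and E. coli WP2 uvrA pKM101 trp⁻, dosed over a range with or without rat, hamster or mouse liver S9. Preincubated 20 min at 37° C (or plate incorporation), plated in agar, incubated usually two days. Revertant colonies counted against negative controls.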

| Structure (SMILES) | outcome |
| --- | --- |
| CCc1ccccc1N | inactive; negative |
| CCSCCC(N)C(=O)O (stereo unspecified) | inactive; negative |
| Nc1ccc(S(=O)(=O)O)cc1 | inactive; negative |
| Cc1occc(=O)c1O | active; weakly positive |
| CCOc1cccc(N)c1 | active; weakly positive |
| CCCCC/C=C\C/C=C\CCCCCCCC(=O)O | inactive; negative |
| Oc1ccc(Cl)cc1Sc1cc(Cl)ccc1O | inactive; negative |
| C1COCCO1 | inactive; negative |
| Nc1ncn[nH]1 | inactive; negative |
| COC(C)(C)CC(C)=O | inactive; negative |
| CCCCNC(=O)n1c(NC(=O)OC)nc2ccccc21 | inactive; negative |
| C1OCOCO1 | inactive; negative |
| Nc1c(Cl)c(Cl)nc(C(=O)O)c1Cl | inactive; negative |
| O=[N+]([O-])c1ccc(Cl)c(Cl)c1Cl | active; positive |
| O=c1[nH]cc(F)c(=O)[nH]1 | inactive; negative |
| NC(=O)/C(=C\c1ccc([N+](=O)[O-])o1)c1ccco1 | active; positive |
| CCCN(CCC)c1c([N+](=O)[O-])cc(C(F)(F)F)cc1[N+](=O)[O-] | active; positive |
| Nc1nc(=S)c2[nH]cnc2[nH]1 | active; positive |
| COC(=O)CCC(=O)OC | inactive; negative |
| Cc1ccccc1C(OCCN(C)C)c1ccccc1 (stereo unspecified) | inactive; negative |
| O=C1C2CC=CCC2C(=O)N1SC(Cl)(Cl)Cl (stereo unspecified) | active; positive |

| Structure (SMILES) | outcome |
| --- | --- |
| COc1ccc(C(Cl)=C(c2ccc(OC)cc2)c2ccc(OC)cc2)cc1 | inactive; negative |
| N#CCCO | inactive; negative |
| COc1cc(-c2ccc(N=Nc3c(S(=O)(=O)O)cc4cc(S(=O)(=O)O)cc(N)c4c3O)c(OC)c2)ccc1N=Nc1c(S(=O)(=O)O)cc2cc(S(=O)(=O)O)cc(N)c2c1O | inactive; negative |
| CCOP(=O)(NC(C)C)Oc1ccc(SC)c(C)c1 (stereo unspecified) | inactive; negative |
| C=C(C)C(=O)OCCCCCCCCCC | inactive; negative |
| O=[N+]([O-])c1c(Cl)c(Cl)cc(Cl)c1Cl | active; weakly positive |
| CCCCCCCCCCCCCCCCCC(O)=[OH+].O.[Cl][Cr][Cl].[Cl][Cr][Cl] | active; positive |
| CCCCOCCOCCSC#N | inactive; negative |
| CCCCCCCCCCCCCC(=O)N[N+](C)(C)CC(C)[O-] (stereo unspecified) | inactive; negative |
| Nc1ccc2c(c1)C(=O)c1ccccc1C2=O | active; positive |
| Cc1c(N=C=O)cccc1N=C=O | active; positive |
| Nc1c(N=Nc2ccc(-c3ccc(N=Nc4ccc(O)cc4)cc3)cc2)c(S(=O)(=O)O)cc2cc(S(=O)(=O)O)c(N=Nc3ccccc3)c(O)c12 | active; positive |
| CN=c1ccc2nc3ccc(N)cc3sc-2c1 | active; positive |
| ClC(Cl)=C(Cl)Cl | inactive; negative |
| C=C(C)C(=O)OCC(Br)CBr (stereo unspecified) | active; positive |
| O=C(O)CCCCC1CCSS1 (stereo unspecified) | inactive; negative |
| c1ccc(C2CO2)cc1 (stereo unspecified) | active; positive |
| O=C1CCC(=O)O1 | inactive; negative |
| CN(C)c1ccc(C(=O)c2ccc(N(C)C)cc2)cc1 | active; positive |
| Oc1cccc(O)c1O | active; positive |
| COC(=O)/C=C/C(C)=C\C=C\C(C)=C\C=C\C=C(C)\C=C\C=C(C)\C=C\C(=O)O | active; positive |

| Structure (SMILES) | outcome |
| --- | --- |
| CBr | active; positive |
| C(=C/c1ccccc1)/c1ccccc1 | inactive; negative |
| Cc1ccc2cc3c(ccc4ccccc43)c3c2c1CC3 | active; positive |
| CC(C)COC(=O)COc1cc(Cl)c(Cl)cc1Cl | inactive; negative |
| CCCC[N+]1(C)CCCC1 | inactive; negative |
| NC(=O)NN=Cc1ccc([N+](=O)[O-])o1 | active; positive |
| Cc1ccc(S(=O)(=O)Oc2ccc(N=Nc3ccc(-c4ccc(N=Nc5c(O)ccc6cc(S(=O)(=O)O)cc(S(=O)(=O)O)c56)c(C)c4)cc3C)cc2)cc1 | active; positive |
| CC1CC(=O)O1 (stereo unspecified) | active; positive |
| O=C(O)CC(=O)O | inactive; negative |
| FC(F)(F)c1ccccc1 | inactive; negative |
| O=C(O)C=Cc1ccc(C=CC(=O)O)cc1 | inactive; negative |
| O=C(O)CN(CC(=O)O)CC(=O)O | inactive; negative |
| CC1OC1C (stereo unspecified) | active; positive |
| CCOS(C)(=O)=O | active; positive |
| CCOCCOC(=O)C=Cc1ccc(OC)cc1 | inactive; negative |
| O=C(O)c1ccccc1C(=O)O | inactive; negative |
| O=c1c2ccccc2c(=O)c2c1ccc1[nH]c3c(ccc4c(=O)c5ccccc5c(=O)c43)[nH]c12 | inactive; negative |
| CC(Cl)Cl | inactive; negative |
| COC[CH2][Hg+] | inactive; negative |

Reference: PubChem BioAssay AID2202554 (NIEHS Division of Translational Toxicology (DTT))
